Entries after “also recorded” stand apart in the source; their conditions may differ.
Legend:
[1] = system: HEK293T Tau RD P301S FRET biosensor cells; test: EV-mediated tau transfer assay; type: cell-based
Method: For EV (extracellular vesicles)-mediated tau transfer assay, donor cells, transduced with AD-brain derived synaptosomal extracts (P2) or synthetic K18 seeds, were cultured for 48 hours in exosome-free medium with or without indicated concentration of tested compounds or DMSO for control, then medium was collected and EVs were purified using Exo-Quick-TC exosome purification kit (SBI, EXOTC10A-1) according to the manufacturing instructions. Naive recipient cells were plated at density 30,000 cells per well (96-well plates), grown for 12 hour in regular medium and then medium was exchanged to exosome-depleted medium, contained exosomes purified from donor cells (each well of recipients received amount of exosomes purified from one well of donor cells). Recipient cells were cultured in the presence of donor cell exosomes for 60 hrs. EV-mediated transfer assay scheme is presented at the FIG. 5A (right).
HEK293T Tau RD P301S FRET biosensor cells were growing in the Dulbecco's Modified Eagle's medium (DMEM) with higher glucose, 10% FBS, and 1% Penicillin-streptomycin at 37° C./5% CO2. Cells were plated in 10-sm dishes (3 million cells per dish in the regular medium) and grown for 12 hrs. Cells assigned to be donors were transduced with pulled synaptosomal (P2) extracts from AD cases using lipofectamine 2000, according to the published literature with minor modifications. We used 35 μg of pulled AD or control (NL) material per one 10-sm dish (TableS1). Defrosted P2 extracts were sonicated in water bath sonicator for 10 minutes, and diluted with Opti-MEM serum reduced medium to the final volume 200 μL per 10-sm dish. In a separate tube lipofectamine 2000 were combined with Opti-MEM medium, based on 25 μl of lipofectamine and 175 μL OptiMEM medium per each 10-sm dish, and incubated for 10 minutes at room temperature (RT). Each P2 or NL extract mix (200 μl) and prepared lipofectamine 2000 mix (200 μl) were combined and incubated for 20 min at RT. Each 10-sm dish with cell received 400 μl of the final liposomes in the total volume of medium 5 ml per dish. Cultures treated with equal amount of empty liposomes were used as an additional control group. Cells were incubated with liposomes for 20 hrs.
For “D+R” assay recipient cells were labeled with 1,1′-Dioctadecyl-3,3,3′,3′-tetramethylindodicarbocyanine (DiD) according to manufacturer's protocol (ThermoFisher V22887) on day 2. On day 3, donor cells were trypsinized (0.05% Trypsin/EDTA), washed with fresh exosome-free medium contained 10% of exosome-depleted FBS (ThermoFisher, A2720803). DiD-labeled recipient cells were also trypsinized and washed in exosome-free medium. […] FRET signal was detected using LSRII flow cytometer (BD biosciences). […]

Thy1-aSyn mice = test: Initial efficacy in Thy1-aSyn mice, aSyn immunofluorescence in substantia nigra; type: in vivo; details: Thy-1 aSyn mice, 100 mg/kg/day oral, 5 weeks
Method: Mice overexpressing human wild-type a-synuclein under control of the Thy-1 promoter (Thy1-aSyn mice) and control C57B1/6 mice were housed under a 12-hour light/dark cycle and had access to standard chow ad libitum. […] Two hours after the last dose, mice were euthanized by ketamine/xylazine over-anesthesia followed by cardiac puncture and saline transcardial perfusion. Brain tissue from individual mice were dissected.
All staining procedures and data collection were performed by investigators blinded to treatment. Double-immunofluorescence for Clone 42 Anti-aSyn/TH in SN (substantia nigra). Analysis of a-synuclein and tyrosine hydroxylase (TH, the marker of dopaminergic neurons) levels was performed in serially sectioned, free-floating vibratome sections. […]
For the quantification of aSyn and TH fluorescent immunolabeling images of immunofluorescence-labeled sections were acquired using an Agilent (Santa Clara, Calif.) microarray scanner equipped with a krypton/argon laser (647 nm) at 10 μm resolution with the photomultiplier tube set at 5% for aSyn and 10% for TH. Immunofluorescence intensity was measured using ImageJ in the appropriate region of interest. TH staining was quantified in the SN pars compact and SN pars reticulate. […]

O=c1[nH]c(=S)[nH]c(-c2ccccc2)c1Cc1c(O)ccc2ccccc12 [cambinol]
EV-mediated transfer of tau to recipient cells ([1]; P2-seeded donor cells treated at 50 μM, 48 hours): decrease; also recorded: more effective than the nSMase2 inhibitor GW4869 | reduction of EV-mediated transfer of tau seeds to naive recipient cells ([1]; inhibitor treatment of donor cells): 8 times | aSyn levels in the substantia nigra (SN) (Thy1-aSyn mice): trend to decrease

From US20200270216A1, “COMPOSITIONS AND METHODS FOR INHIBITING N-SMASE2” (The Regents of the University of California, priority 2017, published 2020)
